Laboratory results reported in patent US8633025B2, “Generation of neuronal cells from embryonic stem cells” (Universite Libre de Bruxelles, priority 2007, dated 2014).

How the values were obtained:
ES cell-derived neurons [1] = assay: Whole-cell patch clamp recording of spontaneous post-synaptic currents; format: cell-based, mouse; settings: for Inhibition of recorded ePSCs: NBQX 5 μM and APV 50 μM
Experimental: Electrophysiological recordings were performed at room temperature (20-25° C.) in an external solution (ACSF) containing 120 mM NaCl, 26 mM NaHCO3, 11 mM D-glucose, 2 mM KCl, 2 mM CaCl2, 1.2 mM MgSO4 and 1.2 mM KH2PO4 with an osmolarity of 290 mOsm. The recording chamber was constantly superfused at a flow rate of 1 ml/min. […] Both pipette solutions were adjusted to pH 7.3 and 300-330 mOsm/l. Whole-cell patch clamp recordings were carried out with an EPC10 amplifier (HEKA, Elektronik, Lambrecht/Pfalz, Germany) in voltage clamp mode. Signals were filtered at 4 kHz using the built-in filter of EPC10 and digitally sampled at 20 kHz except spontaneous postsynaptic currents signals that were filtered at 2.5 kHz and digitally sampled at 5 kHz. Voltage protocol generation, data acquisition and analysis were made with Pulse 8.65 (HEKA, Elektronik, Lambrecht/Pfalz, Germany). The presence of spontaneous excitatory postsynaptic currents (sEPSCs) was assessed by clamping neurons to −60 mV in the presence of 100 μM picrotoxin. The presence of spontaneous inhibitory postsynaptic currents (sIPSCs) was assessed by clamping neurons to […] in the presence of 1 μM TTX, 5 μM 2,3-dioxo-6-nitro-1,2,3,4-tetrahydrobenzo[f]quinoxaline-7-sulfonamide disodium salt (NBQX) and 50 μM D-(−)-2-amino-5-phosphonopentanoic acid (APV). To further check the nature of spontaneous postsynaptic currents, NBQX (5 μM) and APV (50 μM) were used to block AMPA and NMDA receptors respectively and picrotoxin (100 μM) was used to block GABAA receptors. Fifteen neurons were recorded for each type of PSC and for each condition (DDM or DDM+cyclo).

ES cells = assay: Regional identity markers among Nestin-positive neural progenitors from ES cells differentiated in DDM+cyclo (immunofluorescence); format: cell-based, mouse
Experimental: Similar results were obtained with several ES cell lines, including distinct derivatives of E14 and J1 cells. ES cells were trypsinised, dissociated and plated at a density of 5×10^3 cells/cm^2 on gelatin-coated cell culture plastic dishes in ES medium. When needed, the cells were plated for 15-30 minutes on gelatin coated-dishes, to let the MEFS adhere and the supernatant containing ES cells only was recovered and subsequently replated on gelatin coated dishes. After adhesion, medium was changed to “Default Differentiation Medium” (DDM). DDM consists of DMEM/F12 (Invitrogen-Gibco) supplemented with 1×N2 supplement (100×N2 supplement consists of 8.61 μM insulin, 1 mM transferrin, 2 μM progesterone, 10.01 mM putrescine and 3.01 μM selenite; Invitrogen-Gibco), 2 mM glutamine (Invitrogen-Gibco), 1×MEM-nonessential amino acids (Invitrogen-Gibco), 1 mM sodium pyruvate (Invitrogen-Gibco), 110 μM beta-mercaptoethanol (Sigma) and 0.5 mg/ml Bovine Serum Albumine, Fraction V (Invitrogen-Gibco). Medium was changed every two days.
(§1) Medium was removed and cells were rinsed with PBS then fixed for 30 min in 4% paraformaldehyde (PFA) in PBS, pH 7.4 at 4° C. PFA was removed and cells were rinsed three times with PBS. Blocking of unspecific antibody activity and permeabilization was done in PBS supplemented with 5% horse serum (Invitrogen-Gibco), 3% bovine serum albumin (Sigma) and 0.3% Triton X-100 (Sigma). Incubation with primary antibodies was done in PBS supplemented with 1% horse serum, 3% bovine serum albumin and 0.1% Triton X-100 overnight at 4° C. Cells were rinsed three times with PBS and incubated with secondary antibodies in PBS supplemented with 1% horse serum, 3% bovine serum albumin and 0.1% Triton X-100 for one hour at room temperature then rinsed again three times with PBS. For double or multiple immunostaining, the process was repeated. Nuclei were stained with bisbenzimide (Hoechst#33258; Sigma) and coverslips were mounted with glycergel (DAKO). For some antibodies, antigen retrieval was used before blocking: cells were boiled during 4×5 minutes in 10 mM citrate buffer (pH 6.0) and cooled down to room temperature during 20 minutes.
(§2) For quantification of the proportion of cells expressing a specific marker (differentiation markers, region-specific markers, neurotransmitter transporter proteins or layer-specific markers), at least 300 cells from 3 independent experiments (at least 100 cells from each experiment) were counted for each time-point studied.
(§3) Experimental procedures were as described in Example 1. […] Ethanol was used as control.

[2] = test system: ES cell-derived neural progenitors; settings: short BrdU pulse
Experimental: as §3
For long term pulse chase experiments, BrdU (Becton Dickinson) was added to the differentiation medium on the different days during 24 h at a final concentration of 10 μM. Cells were dissociated after 21 days of differentiation and plated on coated coverslips for an additional day. For short-term BrdU uptake experiments, BrdU was added to the differentiation medium during 1 hour prior to cell dissociation and replating.
For BrdU detection, medium was removed and cells were rinsed with PBS then fixed for 30 min in 4% paraformaldehyde (PFA) in PBS, pH 7.4 at 4° C. PFA was removed and cells were rinsed three times with PBS. BrdU was unmasked using an antigen retrieval method: cells were boiled during 4×5 minutes in 10 mM citrate buffer (pH 6.0) and cooled down to room temperature during 20 minutes. Immunostaining was performed as described above using mouse anti-BrdU (1/50, Becton Dickinson) or rat anti-BrdU (1/250, Abcam) antibodies. Multiple labelling was performed sequentially as described above.

ES cell-derived neurons [3] = assay: Neurotransmission markers among Tuj1-positive neurons derived from ES cells (immunofluorescence); format: cell-based, mouse; settings: of Tuj1-positive cells after 28 days of differentiation
Experimental: Similar results were obtained with several ES cell lines, including distinct derivatives of E14 and J1 cells. ES cells were trypsinised, dissociated and plated at a density of 5×10^3 cells/cm^2 on gelatin-coated cell culture plastic dishes in ES medium. When needed, the cells were plated for 15-30 minutes on gelatin coated-dishes, to let the MEFS adhere and the supernatant containing ES cells only was recovered and subsequently replated on gelatin coated dishes. After adhesion, medium was changed to “Default Differentiation Medium” (DDM). DDM consists of DMEM/F12 (Invitrogen-Gibco) supplemented with 1×N2 supplement (100×N2 supplement consists of 8.61 μM insulin, 1 mM transferrin, 2 μM progesterone, 10.01 mM putrescine and 3.01 μM selenite; Invitrogen-Gibco), 2 mM glutamine (Invitrogen-Gibco), 1×MEM-nonessential amino acids (Invitrogen-Gibco), 1 mM sodium pyruvate (Invitrogen-Gibco), 110 μM beta-mercaptoethanol (Sigma) and 0.5 mg/ml Bovine Serum Albumine, Fraction V (Invitrogen-Gibco). Medium was changed every two days. […]
as §2, with “studied. […]” for “studied.”

ES cell-derived neurons [4] = assay: Morphology and Pyramidal Morphology Index (PMI) of MAP2-positive neurons; format: cell-based, mouse
From the text: Pictures of at least 100 neurons stained for MAP2 were to taken randomly for each condition and from two different experiments and the quantification was done blindly in Adobe Photoshop Software using a 25 μm circle drawn on a superposed layer.

ES cell-derived neurons [5] = assay: Slice overlay assay on postnatal cortical slices, radial orientation; format: cell-based; settings: 21 days of differentiation, four days after plating on mouse postnatal cortical slices
ES cell-derived neurons [6] = assay: Layer-specific cortical markers among Tuj1+ neurons (immunofluorescence); format: cell-based, mouse; settings: of all Tuj1+ neurons, days 16-21
Experimental: as §1, with “Nuclei were stained with bisbenzimide (Hoechst#33258; Sigma) and coverslips were mounted with glycergel (DAKO).” left out
as §2
We studied the expression of the following layer-specific markers corresponding to the major subtypes of cortical neurons generated in vivo in the mouse, including: Tbr1 and reelin for preplate neurons and Cajal-Retzius cells; Tle4, Tbr1, CTIP2, Otx1, Er81, FoxP2 for deep ([…]) layer neurons; Satb2 and Cux1 for upper (II/III/IV) layer neurons and callosal projection neurons of layer V (see FIG. 5).

[7] = test system: ES cell-derived neural progenitors; assay: Regional markers among Nestin-positive progenitors after DDM+Shh or DDM+Dkk; format: cell-based, mouse; settings: 14 days
Experimental: FIG. 12 illustrates that neural progenitors and neurons of ventral telencephalic identity (including cortical interneurons, striatal interneurons, striatal projections neurons) can be generated from ES cells following DDM+Shh (at 1-10 μM) or DDM+DDK Wnt inhibitor (at 100-300 ng/ml), or a combination of both (at 1 μM/100 ng/ml respectively). (A) Proportion of Nestin positive neural progenitors expressing specific neural regionalization markers following 14 days of differentiation in DDM or DDM+Shh or DDM+DKK. (B), (C) Proportion of VgluT1, VgluT2 and vGAT, and reelin, Tbr1, Isl1 among Tuj1 positive neurons after 21 days of differentiation in DDM alone or DDM+Shh or DDM+DKK, or DDM+Shh/DKK.
To increase the proportion of ventral character of the ES cell-derived neural progenitors, we chose to increase Shh signalling, by adding soluble recombinant Shh to DDM, or to antagonize dorsalizing Wnt-signalling, by adding Dickkopf-1 (Dkk), a soluble antagonist of the Wnt pathway.

[8] = neurons after 28 days following differentiation in DDM
[9] = cyclopamine 1 μM day 2 to day 10, 14 days, of Nestin-positive cells

2,3-dioxo-6-nitro-1,2,3,4-tetrahydrobenzo[f]quinoxaline-7-sulfonamide disodium salt [NBQX]
Inhibition of recorded ePSCs (ES cell-derived neurons [1]; [8]): selective inhibition

N[C@H](CCCP(=O)(O)O)C(=O)O [APV, D-(−)-2-amino-5-phosphonopentanoic acid]
Inhibition of recorded ePSCs (ES cell-derived neurons [1]; [8]): selective inhibition

CC1=C2C[C@H]3[C@@H](CC=C4C[C@@H](O)CC[C@@]43C)[C@@H]2CC[C@]12O[C@@H]1C[C@H](C)CN[C@H]1[C@H]2C [cyclopamine]
Otx1-2 positive neural progenitors (ES cells; cyclopamine 1 μM day 2 to day 10, 14 days of differentiation, of Nestin-positive cells): 75.57+/−1.21% | Gsh2 expression among neural progenitors (ES cells; [9]): 1.37+/−0.61% | Nkx2.1 expression among neural progenitors (ES cells; [9]): 1.87+/−1.10% | Nkx2.2 expression among neural progenitors (ES cells; [9]): 4.05+/−1.10% | Otx1 expression among neural progenitors (ES cells; [9]): 71.21+/−2.52% | Pax6 expression among neural progenitors (ES cells; [9]): 73.03+/−2.44% | Effect on the neuralization process (pattern of pan-neural markers) (ES cells; different time points, compared with DDM without cyclopamine): did not change significantly | BrdU labelled neural progenitors, day 10 ([2]; day 10): 42.11+/−3.42% | BrdU labelled neural progenitors, day 14 ([2]; day 14): 28.57+/−2.00% | VGluT1 expressing neurons (ES cell-derived neurons [3]): 70.04+/−2.98% | VGluT2 expressing neurons (ES cell-derived neurons [3]): 15.46+/−2.52% | GABAergic inhibitory post-synaptic currents (iPSCs) recorded (ES cell-derived neurons [1]): no or little iPSCs could be recorded | Neurons displaying glutamatergic excitatory post-synaptic currents (ePSCs) (ES cell-derived neurons [1]): 38.89+/−11.49% | Neurons with PMI superior to the cut-off value (ES cell-derived neurons [4]; cut-off 1.2 μm, of MAP2-positive neurons after 28 days of differentiation): 77.23+/−4.17% | PMI compared with DDM conditions (ES cell-derived neurons [4]; p<0.001, Mann-Whitney test): significantly higher PMI | Neurons showing a unipolar morphology (ES cell-derived neurons [4]; semi-quantitative scoring, MAP2-positive neurons, 28 days): 61.39+/−4.84% | Neurons displaying a radial orientation (ES cell-derived neurons [5]): 64.98+/−2.40% | CTIP2 expressing neurons (ES cell-derived neurons [6]): 36.01+/−1.52% | Cux1 expressing neurons (ES cell-derived neurons [6]): 10.56+/−0.80% | Otx1 expressing neurons (ES cell-derived neurons [6]): 15.42+/−1.06% | Satb2 expressing neurons (ES cell-derived neurons [6]): 7.60+/−0.78% | Tbr1 expressing neurons (ES cell-derived neurons [6]): 38.14+/−1.54% | reelin expressing neurons (ES cell-derived neurons [6]): 21.18+/−1.28%

picrotoxin
Inhibition of recorded iPSCs (ES cell-derived neurons [1]; neurons after 28 days following differentiation in DDM, picrotoxin 100 μM): selective inhibition

B1: Dkk: Dickkopf-1 (Dkk), a soluble antagonist of the Wnt pathway (protein, UniProt O94907 32-266, looked up)
Dickkopf-related protein 1: TLNSVLNSNAIKNLPPPLGGAAGHPGSAVSAAPGILYPGGNKYQTIDNYQPYPCAEDEECGTDEYCASPTRGGDAGVQICLACRKRRKRCMRHAMCCPGNYCKNGICVSSDQNHFRGEIEETITESFGNDHSTLDGYSRRTTLSSKMYHTKGQEGSVCLRSSDCASGLCCARHFWSKICKPVLKEGQVCTKHRRKGSHGLEIFQRCYCGEGLSCRIQKDHHQASNSSRLHTCQRH
Proportion of Nkx2.1 positive progenitors ([7]; 300 ng/ml Dkk, of all Nestin-positive cells): 29.0±2.0% | Expression of Pax6 among progenitors ([7]; Dkk 300 ng/ml, of Nestin-positive cells): 23.7±1.4%
